Laboratory results published in US20060173080A1, “Methods of modulating TNF using bupropion” (The Regents of the University of California, priority 2002, published 2006).
“Also recorded” adds a separate entry of the source. Where a name gives a salt, the structure may show the parent alone.

Assays:
CD patients = experiment: Case reports of Crohn's disease patients on bupropion (CDAI, symptoms, flares); assay type: in vivo, human
Description: Also, multiple toxicity issues are associated with taking medicines such as azathioprine, methotrexate, and steroids over time (Sartor R B. New therapeutic approaches to Crohn;s disease. N Engl J Med 2000;342:1664-1666). In CD, TNF is increased, and TNF is thought to play a central role in CD pathogenesis (Papadakis K A, Targan S R. Role of cytokines in the pathogenesis of inflammatory bowel disease. Annu Rev Med 2000;51:289-298). Monoaminergic and dopaminergic treatments can lower levels of TNF-alpha via increased intracellular adenosine 3′,5′-cyclic monophosphate (cAMP).
person one presented in May of 1999 for treatment of an episode of major depression, superimposed on a chronic mild depressed state (dysthymia). […] They were not usually pain-free during the week, though usually did have several pain-free hours in a given day. […] Inadvertent loss of stool several times a month required daily use of adult protective pads. They were taking fluoxetine 40 mg every day for depression, and mesalamine 500 mg twice a day. CDAI was 202.
After careful review of treatment options, they were started on bupropion (fluoxetine was stopped) with up-titration to 150 mg twice a day. Their abdominal complaints eased over the next months, and the major depression remitted. The baseline dysthymia remained. To better treat the dysthymia, bupropion was raised to 150 mg three times daily with a further lowering of their CDAI. The mesalamine was tapered off. Their CDAI is currently approximately zero. They have one well-formed bowel movement daily and has been without abdominal symptoms or encopresis for 19 months now. They have had no CD flares since starting bupropion. Twice in the last year, they stopped bupropion on their own accord because they felt completely well and felt they didn't need bupropion anymore.
The above-described response to bupropion was consistent with other responses in CD patients. For example, a person with a 20-year history of Crohn's enteritis with multiple surgeries, including 4 small bowel resections. […] The patient was taking fluoxetine to help with pain control. […] Even though they were not able to stop smoking, the patient felt better on bupropion so they decided to continue this medicine with their family doctor's consent. Currently, the patient is taking bupropion 150 mg three times daily. […] Under their doctor's supervision, they have recently tapered their azathioprine from 100 to 50 mg every day without any increase in CDAI.

IL-10 = experiment: Serum IL-10 by ELISA in LPS-challenged mice; assay type: in vivo, BALB/c mice; settings: bupropion 100 mg/kg i.p. 1 h before 600 μg LPS i.p., serum 90 min after LPS, hydrochloride
Procedure: To study the immunomodulatory effects of bupropion we used a mouse model in which TNF production is induced by stimulation with lipopolysaccharide (LPS) (Bozza et al, The PACAP-type I receptor agonist maxadilan from sand fly saliva protects mice against lethal endotoxemia by a mechanism partially dependent on IL-10, Eur. J. Immunol. 28, 3120-3127, 1998). BALB/c mice were injected intraperitoneally (i.p.) with bupropion or placebo 1 h prior to i.p. injection of LPS (600 ug/mouse).
Male, 6 weeks old BALB/c mice were used in LPS-induced shock experiments. […]
TNF, IL-1beta, IFN-gamma and IL-10 concentrations in serum samples or in supernatants from macrophage cultures were determined by enzyme-linked immunosorbent assay (ELISA) using antibody pairs and recombinant cytokines from R&D systems (Minneapolis, Minn., USA), according to the manufacturer's instructions. After incubation with streptoavidin-peroxidase conjugate (Sigma), the reaction was developed using 3,3′, 5,5′-tetramethylbenzidine (TMB) peroxidase substrate and read at 450 nm. The serum concentration of nitrite (NO2−) was determined by the Griess reaction, as an indicator of nitric oxide production (Green et al., Analysis of nitrate nitrite and [^15N] nitrite in biological fluids. Anal. Biochem 126, 131-138, 1982). […] The absorbance of the reaction product at 540 nm was measured using an ELISA reader. […]

[1] = tested on: platelet and leukocyte numbers in peripheral blood; experiment: Platelet and leukocyte counts in peripheral blood 4 h after LPS challenge; assay type: in vivo, BALB/c mice; settings: bupropion 100 mg/kg i.p. 1 h before LPS, hydrochloride
Procedure: FIG. 6 is a bar graph depicting normalization of platelet and leukocyte levels by bupripion treatment. Groups of BALB/c mice were injected with bupropion 100 mg/kg (Wellbutrin, Glaxo) or with placebo i.p. in saline 1 h before challenge with 600 μg of LPS (DL-100) by i.p. route. Platelet and leukocyte numbers were evaluated in peripheral blood samples collected 4 h after LPS challenge in an automated cell counter (Bayer). * P<0.05 placebo compared with normal levels; # P<0.05 bupropion compared with placebo. In a shock often platelet levels drop precipitously due to intravascular coagulation and leukocyte also fall secondary to TNF induced apoptosis. The normalization by bupropion is consistent with the other effects of bupropion in this model.
Groups of mice were injected intraperitoneally (i.p.) with a dose of 600 μg of LPS (from Escherichia coli serotype 0111 :B4, Sigma, St. Louis, Mo., USA) in saline (previously determined as LD 100) 1 h after injection of placebo or bupropion. In some experiments, groups of mice received i.p. injection of propranolol (1 mg/Kg), SCH23390 (25 μg/kg) and sulpiride (25 mg/Kg) 1 h prior to injection of bupropion. […]. To determine serum TNF, IL-1 beta and IL-10 levels, mice were sacrificed 90 min after injection of LPS and bled by axilar vein puncture. […]

β-adrenergic receptor = settings: Garrcha et al. 1985; cited from earlier work

**Q.** Which “CD flares since starting bupropion” value (CD patients; case patients, hydrochloride) does the source give for `CC(NC(C)(C)C)C(=O)c1cccc(Cl)c1` (racemic) [bupropion, (.±.)-1-(3-chlorophenyl)-2-[(1,1-dimethylethyl)amino]-1-propanone hydrochloride] here?
**A.** no CD flares; also recorded: no CD flares or associated surgeries

**Q.** And the “time without abdominal symptoms or encopresis” value (CD patients; person one on bupropion)?
**A.** 19 months

**Q.** What about the CDAI (CD patients; person one, colonic CD, bupropion 150 mg three times daily, CDAI 202 before bupropion) of the same compound?
**A.** approximately zero

**Q.** What about the “abdominal cramping and blood per rectum after restarting bupropion” value (CD patients; person one, symptoms recurred on two self-chosen stops) of the same compound?
**A.** remitted within weeks

**Q.** And the CDAI (CD patients; person, Crohn's enteritis, bupropion 150 mg three times daily, CDAI approximately 275 before)?
**A.** about 45

**Q.** What about the “Crohn's symptoms” value (CD patients; person, bupropion 150 mg three times daily) of the same compound?
**A.** alleviated completely

**Q.** What about the “side effects or toxicities” value (CD patients; two CD cases, over 2 years) of the same compound?
**A.** without significant side effects or toxicities

**Q.** And the “remission of CD” value (CD patients; two cases)?
**A.** near complete and long-lasting (over 2 years) remissions

**Q.** And the “serum IL-10 level compared with placebo” value (IL-10)?
**A.** significantly raised

**Q.** What about the “serum IL-10 level compared with placebo” value (IL-10; listed as Bupropion) of the same compound?
**A.** significantly increased

**Q.** And the leukocyte levels [1]?
**A.** higher leukocyte levels; also recorded: normalization

**Q.** What about the platelet counts [1] of the same compound?
**A.** significantly higher than placebo treated mice and similar to those of normal mice; also recorded: normalization

**Q.** And the “compensatory β-adrenergic receptor down-regulation” value (β-adrenergic receptor)?
**A.** does not cause
